Laboratory results as given in ChEMBL document CHEMBL4425143, “Design and synthesis of new homo and hetero bis-piperazinyl-1-propanone derivatives as 5-HT7R selective ligands over 5-HT1AR” (Bioorg Med Chem Lett, 2016).

How the values were obtained:
[1] = biological target: T1, 5-hydroxytryptamine receptor 1A (Homo sapiens, UniProt P08908); experiment: Displacement of [3H]-8-OH-DPAT from human 5-HT1A receptor expressed in CHOK1 cell membranes after 30 mins by liquid scintillation spectrometry
T1 sequence (P08908 whole entry): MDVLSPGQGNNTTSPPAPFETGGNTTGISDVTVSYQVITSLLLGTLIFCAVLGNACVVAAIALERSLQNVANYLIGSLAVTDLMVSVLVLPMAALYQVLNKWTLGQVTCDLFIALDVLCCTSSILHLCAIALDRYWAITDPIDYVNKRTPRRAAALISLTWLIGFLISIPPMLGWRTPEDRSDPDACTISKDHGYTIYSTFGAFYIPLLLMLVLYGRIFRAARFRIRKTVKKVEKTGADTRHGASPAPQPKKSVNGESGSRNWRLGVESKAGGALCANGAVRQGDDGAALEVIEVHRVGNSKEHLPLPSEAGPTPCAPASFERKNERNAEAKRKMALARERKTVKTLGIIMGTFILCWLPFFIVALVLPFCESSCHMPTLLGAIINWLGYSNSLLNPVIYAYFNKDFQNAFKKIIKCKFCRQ

[2] = biological target: T2, 5-hydroxytryptamine receptor 7 (Homo sapiens, UniProt P34969); experiment: Displacement of [3H]-5-HT from human 5-HT7 receptor expressed in CHOK1 cell membranes after 30 mins by liquid scintillation spectrometry
T2 sequence (P34969 whole entry): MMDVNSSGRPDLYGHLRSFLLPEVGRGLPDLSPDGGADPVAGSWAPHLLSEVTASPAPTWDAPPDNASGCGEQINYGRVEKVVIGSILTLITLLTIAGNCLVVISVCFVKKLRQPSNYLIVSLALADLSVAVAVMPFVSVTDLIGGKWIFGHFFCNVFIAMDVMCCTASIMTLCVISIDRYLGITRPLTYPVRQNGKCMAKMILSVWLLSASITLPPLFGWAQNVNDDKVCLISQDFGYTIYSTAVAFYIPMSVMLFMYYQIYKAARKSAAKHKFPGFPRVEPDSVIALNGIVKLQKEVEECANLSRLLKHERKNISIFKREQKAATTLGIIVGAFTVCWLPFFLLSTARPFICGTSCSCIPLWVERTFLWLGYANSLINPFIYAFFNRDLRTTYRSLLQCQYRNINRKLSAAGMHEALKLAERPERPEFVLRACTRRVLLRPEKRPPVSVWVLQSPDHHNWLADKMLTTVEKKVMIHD

[3] = biological target: T3, 5-hydroxytryptamine receptor 1A (Homo sapiens) (UniProt P08908); experiment: Displacement of [3H]-8-OH-DPAT from human 5-HT1A receptor expressed in CHOK1 cell membranes at 10^-5M after 30 mins by liquid scintillation spectrometry
T3 sequence (whole entry): T1 sequence (P08908 whole entry)

[4] = biological target: T2, 5-hydroxytryptamine receptor 7; experiment: Displacement of [3H]-5-HT from human 5-HT7 receptor expressed in CHOK1 cell membranes at 10^-5M after 30 mins by liquid scintillation spectrometry
[5] = Dissociation constant, pKa of the compound at pH 7.4; assay type: physicochemical

SMILES | Ki [1] [nM] | Ki [2] [nM] | inhibition [3] [%] | inhibition [4] [%] | pKa [5]
O=C(CCCCN1CCN(c2ccccc2)CC1)N1CCN(c2ccccc2)CC1 | 350 | 197 |  |  | 
COc1ccc(N2CCN(C(=O)CCN3CCN(Cc4ccccc4)CC3)CC2)cc1 |  |  | < 50 | < 50 | 
O=C(CCNCc1ccccc1)NCc1ccccc1 | 3750 | 176 |  |  | 
O=C(CCN1CCN(Cc2ccccc2)CC1)NCc1ccccc1 | 0.34 | 4.34 |  |  | 
O=C(CCN1CCN(Cc2ccccc2)CC1)N1CCN(c2cccc(Cl)c2)CC1 | 101 | 54.7 |  |  | 
O=C(CCN1CCN(c2ccccc2)CC1)N1CCN(c2cccc(Cl)c2)CC1 | 1070 |  |  | < 50 | 
O=C(CCNCc1ccccc1)N1CCN(c2ccccc2)CC1 | 938 |  |  | < 50 | 
O=C(CCN1CCN(c2ccc(Cl)cc2)CC1)N1CCN(c2ccccc2)CC1 | 1680 | 462 |  |  | 
O=C(CCN1CCN(c2ccc(Cl)cc2)CC1)N1CCN(c2cccc(Cl)c2)CC1 | 302 | 2370 |  |  | 
O=C(CCN1CCN(c2cccc(Cl)c2)CC1)N1CCN(c2cccc(Cl)c2)CC1 | 142 | 2760 |  |  | 

Further molecules by falling Ki [2], results first:

Ki [1] [nM] | Ki [2] [nM] | inhibition [3] [%] | inhibition [4] [%] | pKa [5] | SMILES
15.2 | 119 |  |  |  | CCOc1ccccc1N1CCN(CCC(=O)N2CCN(c3cccc(Cl)c3)CC2)CC1
81.8 | 80.3 |  |  |  | CCOc1ccccc1N1CCN(CCC(=O)N2CCN(c3ccccc3)CC2)CC1
 | 52 | < 50 |  | 8.55 | O=C(CCN1CCN(Cc2ccccc2)CC1)N1CCN(c2ccccc2)CC1
 | 50.2 | < 50 |  |  | O=C(CCN1CCN(Cc2ccccc2)CC1)N1CCN(c2ccccc2Cl)CC1
 | 36.6 | < 50 |  |  | O=C(CCN1CCN(Cc2ccccc2)CC1)N1CCN(c2ccc(Cl)cc2)CC1
33.5 | 32.7 |  |  |  | O=C(CCN1CCN(c2cccc(Cl)c2)CC1)N1CCN(c2ccccc2)CC1
 | 29.5 | < 50 |  |  | O=C(CCN1CCN(Cc2ccccc2)CC1)N1CCN(c2ccccn2)CC1
272 | 26.2 |  |  | 8.11 | O=C(CCN1CCN(c2ccccc2)CC1)N1CCN(c2ccccc2)CC1
 | 24.2 | < 50 |  |  | COc1ccccc1N1CCN(C(=O)CCN2CCN(Cc3ccccc3)CC2)CC1
 | 23.5 | < 50 |  |  | O=C(CCN1CCN(Cc2ccccc2)CC1)N1CCN(c2ncccn2)CC1
